Experimental data taken from patent publication EP0107208A1, “1,1,2-Triphenyl-but-1-ene derivatives, process for their preparation and their use as medicines” (Klinge Pharma GmbH, priority 1982, dated 1984).
Several values for one entry are separate records, joined by “and”; a condition that tells them apart may be missing. Equal values may be shown once. Read-outs that look alike come from different tables or passages of the source. One block for each molecule: values may come before it.

Key:
[1] = tested on: ZR-75-1-Zellen; assay: Inhibition of RNA synthesis in isolated human mammary tumour cells (incorporation of labelled uridine); assay type: cell-based; settings: for inhibition at 1 µM / inhibition at 4 µM / inhibition at 0.1 µM: Homo sapiens, ZR-75-1, 48 h; for Prozentuale Hemmung der RNS-Synthese: 2880 min
Source text: […] positive [ER +] Mammatumor-Zellen aus Patienten zu isolieren und in vitro kontinuierlich zu […] sog. […] in vivo beobachteten morphologischen […] und […] somit […] zur Testung von Antiestrogenen dar,da direkte Aussagen über den Einfluß auf den in vivo zu […]. […] Der Einfluß der beanspruchten Verbindunger. auf das Wachstum dieser Zellen wurde über den Einbau von […] bzw. Thymidin nach der Methode von Lippman, M. et al kontrolliert. […] Thymidin versetzt und nach einer Stunde die Einbaurate des markierten Materials in den Zellen bestimmt.

[2] = biological target: T1, Estradiolrezeptor (Oryctolagus cuniculus, UniProt G1SML6); assay: Binding affinity to the estradiol receptor: displacement of [3H]-estradiol in rabbit uterus cytosol; parameters: species or system Kaninchen (Neuseeländer); settings: molar concentration displacing 50% [3H]-Estradiol from the receptor, 18 h at 4° C, 2.5 ×10^-9 M [3H]-Estradiol, read-out: ED50% (the source's name)
T1 construct: Das Uteruscytosol von weiblichen, präpubertären, weißen 2 kg schweren Kaninchen (Neuseeländer); from tissue; host or cells: uterus cytosol of female prepubertal New Zealand white rabbits
T1 sequence (G1SML6 1-598): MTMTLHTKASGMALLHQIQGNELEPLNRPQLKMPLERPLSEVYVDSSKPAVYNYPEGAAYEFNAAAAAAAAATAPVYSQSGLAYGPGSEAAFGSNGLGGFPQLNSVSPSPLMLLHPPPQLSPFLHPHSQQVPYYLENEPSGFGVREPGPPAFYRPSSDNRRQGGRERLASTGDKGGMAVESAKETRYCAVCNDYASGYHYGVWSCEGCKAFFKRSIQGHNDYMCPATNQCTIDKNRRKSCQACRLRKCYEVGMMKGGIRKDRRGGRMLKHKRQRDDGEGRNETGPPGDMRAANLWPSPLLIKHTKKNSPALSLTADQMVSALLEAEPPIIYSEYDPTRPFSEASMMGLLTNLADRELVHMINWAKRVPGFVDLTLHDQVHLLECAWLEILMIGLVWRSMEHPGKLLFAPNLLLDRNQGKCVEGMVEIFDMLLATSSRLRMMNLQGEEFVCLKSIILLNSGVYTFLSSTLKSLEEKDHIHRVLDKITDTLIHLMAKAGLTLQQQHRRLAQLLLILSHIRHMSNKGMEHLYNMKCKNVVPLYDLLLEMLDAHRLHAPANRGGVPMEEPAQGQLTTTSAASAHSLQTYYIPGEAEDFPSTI
Source text: Die Messung der Eindungsaffinität zum Estradiolrezeptor erfolgte nach der Eethode von N. Devleeschouwer, G. Leclercq, A. Danguy und J. C. Heuson LEurop. J. Cancer, 14 ,721 - 723 (197o)].
Testsubstanz verschiedener Konzentration inkubiert.Die Bindungsaffinität zum Estradiolrezeptor wird ausgedrückt durch die aen. […] Testsubstanz, welche eine 5C-prcz.

[3] = tested on: ZR-75-1-Zellen; assay: Inhibition of RNA synthesis in ZR-75-1 cells in the presence of 17-β-estradiol; assay type: cell-based; settings: Homo sapiens, compound 1 x 10^-6 [M] + 17-β-Estradiol 1 x 10^-8 [M], 48 h incubation, read-out: Prozentuale Hemmung der RNS-Synthese
Source text: Zur […] vivo wurde die Potenz der antiestrogenen Wirkung der beanspruchten Verbindungen in Gegenwart eines Estrogens geprüft. […] Thymidin hinzugefügt und nach einer Stunde die Einbaurate des markierten Materials in gen Zellen bestimmt.[Tab.4]

[4] = read-out: Prozentuale Hemmung der RNS-Synthese

Compound: CC/C(=C(\c1ccccc1)c1ccc(OCCN(C)C)cc1)c1ccccc1 [Tamoxifen, (Z)-1-[4'-(2-Dimetrylaminoethcxy)phenyl]-1,2-diphenyl-but-1-en, reference compound]
inhibition at 1 µM ([1]; read-out: Prozentuale Hemmung der RNS-Synthese, substance concentration 1 x 10^-6[M], 48 h incubation, Tamoxifen run in each experiment): 43% | inhibition at 4 µM ([1]; read-out: Prozentuale Hemmung der RNS-Synthese, substance concentration 4 x 10^-6[M], 48 h incubation, Tamoxifen run in each experiment): 99% | Prozentuale Hemmung der RNS-Synthese ([1]; substance concentration 1 x 10^-6[M], 48 h incubation, Tamoxifen run in each experiment, 1 µM): 44% and 39% and 59% | Prozentuale Hemmung der RNS-Synthese ([1]; substance concentration 1 x 10^-6[M], 48 h incubation, Tamoxifen run in each experiment, listed as Taxoxifen, 1 µM): 46% | Prozentuale Hemmung der RNS-Synthese ([1]; substance concentration 1 x 10^-7[M], 48 h incubation, Tamoxifen run in each experiment, 0.1 µM): 29% and 16% | Prozentuale Hemmung der RNS-Synthese ([1]; substance concentration 1 x 10^-7[M], 48 h incubation, Tamoxifen run in each experiment, 0.1 µM, listed as Taxoxifen): 2% | Prozentuale Hemmung der RNS-Synthese ([1]; substance concentration 4 x 10^-6[M], 48 h incubation, Tamoxifen run in each experiment, 4 µM): 100% | Prozentuale Hemmung der RNS-Synthese ([1]; substance concentration 4 x 10^-6[M], 48 h incubation, Tamoxifen run in each experiment, listed as Taxoxifen, 4 µM): 93%

Compound: CC/C(=C(/c1ccc(OCCN(C)C)cc1)c1cccc(O)c1)c1cccc(O)c1 [Verbindung 4, (E)-1-[4'-(2-Dimethylaminoethoxy)phenyl]-1,2-bis-(3'-hydroxyphenyl)-but-1-en]
inhibition at 0.1 µM [1, 4]: 33% | inhibition at 1 µM [1, 4]: 73% | inhibition at 4 µM [1, 4]: 100% | inhibition at 1 µM [3]: 79%

Compound: CC/C(=C(/c1ccc(OCCN(C)C)cc1)c1cccc(O)c1)c1ccc(Br)cc1 [Verbindung 6, (E)-2-(4'-Bromphenyl)-1-[4'-(2-dimethylaminoethoxy)phenyl]-1-(3'-hydroxyphenyl)-but-l-en]
inhibition at 0.1 µM [1, 4]: 47% | inhibition at 1 µM [1, 4]: 70% | inhibition at 4 µM [1, 4]: 100% | inhibition at 1 µM [3]: 74%

Compound: CC/C(=C(/c1ccc(OCCN(CC)CC)cc1)c1cccc(O)c1)c1ccc(OC)cc1 [Verbindung 7, (E)-1-[4'-(2-Diethylaminoethoxy)phenyl]-1-(3'-hydroxyphenyl)-2-(4'methoxyphenyl)-but-l-en]
inhibition at 0.1 µM [1, 4]: 4% | inhibition at 1 µM [1, 4]: 37% | inhibition at 4 µM [1, 4]: 91% | inhibition at 1 µM [3]: 41%

Second part, led by results:

IC50 [2]: 0.035 µM
Compound: CC/C(=C(/c1ccc(OCCN(C)C)cc1)c1cccc(O)c1)c1cccc(C)c1 [Verbindung 1, (E)-1-[4'-(2-Dimethylaminoethoxy)phenyl]-1-(3'-hydroxyphenyl)-2-(3'-methylphenyl)-but-1-en]
inhibition at 0.1 µM [1, 4]: 47% | inhibition at 1 µM [1, 4]: 74% | inhibition at 4 µM [1, 4]: 100% | inhibition at 1 µM [3]: 74%

IC50 [2]: 0.073 µM
Compound: CC/C(=C(/c1ccc(OCCN(C)C)cc1)c1cccc(O)c1)c1ccc(C)cc1 [Verbindung 2]
inhibition at 0.1 µM [1, 4]: 42% | inhibition at 1 µM [1, 4]: 62% | inhibition at 4 µM [1, 4]: 100% | inhibition at 1 µM [3]: 58%

IC50 [2]: 0.028 µM
Compound: CC/C(=C(/c1ccc(OCCN(C)C)cc1)c1cccc(O)c1)c1ccc(OC)cc1 [Verbindung 3, (E)-1-[4'-(2-Dimethylaminoethoxy)phenyl]-1-(3'-hydroxyphenyl)-2-(4'-methoxyphenyl)-but-1-en]
inhibition at 0.1 µM [1, 4]: 36% | inhibition at 1 µM [1, 4]: 68% | inhibition at 4 µM [1, 4]: 100% | inhibition at 1 µM [3]: 65%

IC50 [2]: 0.085 µM
Compound: CC/C(=C(/c1ccc(OCCN(C)C)cc1)c1cccc(O)c1)c1ccc(Cl)cc1 [Verbindung 5]
inhibition at 0.1 µM [1, 4]: 41% | inhibition at 1 µM [1, 4]: 61% | inhibition at 4 µM [1, 4]: 100%
